Data reported in patent publication US20240139125A1 (INDUSTRIAL COOPERATION FOUNDATION JEONBUK NATIONAL …, priority 2020, published 2024).

Columns and labels:
[1] = tested on: AKT serine phosphorylation (S473); assay: AKT phosphorylation by Western blotting; assay type: cell-based; details: BIA analogues, 10 μM
Protocol: This is AKT signaling key to cancer cell growth, and BIA and its analogues tend to inhibit it. Only representative experimental results were presented. Data were expressed as mean±SD. After one-way ANOVA, Tukey's post hoc test is conducted.
After cell recovery, cell lytic buffer (10 mM Tris-Cl (pH 7.4), 5 mM EDTA, 130 mM NaCl, 1% Triton X-100) and protease inhibitor mix protease inhibitor cocktail (protease inhibitor cocktail and phosphatase inhibitor cocktail) were added and left at 4° C. for 30 minutes. After breaking the cells with ultrasound, they were centrifuged at 13,000× g at 4° C. for 30 minutes, and then the supernatant was taken, and the concentration was quantified using a protein quantification kit (Bio-Rad Laboratories, Hercules, CA, USA). 20 ug of the obtained protein was electrophoresis with polyacrylamide gel electrophoresis (SDS-PAGE) followed by electrotransfer to PVDF membrane (Bio-Rad). The membrane was blocked at room temperature for 1 hour with a TBS-T solution (20 mM Tris (pH 7.5), 137 mM NaCl, 0.05% Triton X-100) containing 5% skim milk. Then, after switching to a solution containing the primary antibody, it was reacted at 4° C. The membrane after the reaction was washed three times with TBS-T solution, reacted with a secondary antibody, and then luminesced using an ECL kit and autoradiography. […]

[2] = Cell viability for BIA and analogues, HT1080 cell line; assay type: cell-based; details: human, HT1080 fibrosarcoma cells; for viability at 5 µM: HT1080, 5 uM; for viability at 10 µM: HT1080, 10 uM
Protocol: HT1080 MDA-MB-231, SKBR3 and MCF7 cell lines were cultured in a 37° C., 5% CO2 incubator in a medium with 10% Fetal Bovine Serum, 1% penicillin and streptomycin (100 U) added to DMEM.
(§1) The compound prepared in Example 15 was treated with HT1080 fibrosarcoma cell line at 5 μM and 10 μM and cell viability was measured. In addition, the compound prepared in Example 15 on the DU145 prostate cancer cell line was treated with 10 μM, 20 μM, and 30 μM and cell viability was measured (see Table 2, Table 3).

[3] = Cell viability for BIA and analogues, DU145 cell line; assay type: cell-based; details: human; for viability at 10 µM: DU145, 10 uM; for viability at 20 µM: DU145, 20 uM; for viability: DU145, 50 rpm
Protocol: as §1

SARS-CoV2 virus = assay: MTT cell viability of Vero E6 cells infected with SARS-CoV2; assay type: cell-based; details: Severe acute respiratory syndrome coronavirus 2, Vero C1008, 24 h, Vero E6, SARS-CoV2 0.1 MOI, 500 nM, 24 hours after treatment; control DMSO-S 66.52±2.28%
Protocol: Vero E6 cells, monkey kidney cell masters, were dispensed at 1×10^4 cells/well per well in 96 well plates and incubated at 37° C., 5% CO2 incubators for 24 hours. SARS-CoV2 to infect Vero E6 cells was S ARS-CoV 43326 distributed from the National Pathogen Resource Bank, and DMEM (2% FBS, 1% antibiotic-antimycotic) medium was dispensed at 100 μL/well to infect 0.1 MOI. For 1 hour The virus was removed after 1 hour of infection in a 37° C., 5% CO2 incubator.
Next, samples prepared so that BIA or analogue compounds were finally 500 nM were dispensed 100 μL/well, including the culture medium, and then treated in a 37° C., 5% CO2 incubator for 24 hours. In the same way, the group treated with 2 μM, 5 μM, or 10 μM of Remdesivir (Rem) was a positive control.
Check the condition of the cells, add 100 μL/well of 0.5 mg/ml MTT solution, react in a 37° C., 5% CO2 incubator for 4 hours, wash out the media, and DMSO to the cells by 100 μL/well After sufficient dissolution, absorbance was measured at 540 nm with a plate reader to evaluate cell viability.
To confirm the possibility of viral prevention and therapeutic effects of BIA and its analogue compounds, 500 nM treatment of BIA analogue at the same time as viral infection, and then MTT assay whether the viability of cells against viral infection is improved after 24 hours. The results confirmed are shown in the graph of FIG. 82.

BI-1 (TMBIM6) = assay: TMBIM6-GCaMP3 fluorescence, calcium released through BI-1; assay type: cell-based; details: 10 μM, compared with DMSO control
BAL inflammatory cells = assay: Aspergillus-infected asthmatic mouse model, BAL cells and lung histology; assay type: in vivo; details: asthma-inducing group; BIA 0.1 mg/kg and 0.01 mg/kg, IC87114 1 mg/kg, intratracheal
Excerpt: FIG. 80A and FIG. 80B show mice that were infected with aspergillus with or without BIA, or IC87114, fixing the tissue to 4% formalin, injecting paraffin to make blocks, and then cutting into 4 μm thick to react to buffer and performing hematoxylin-eosin staining. The observation result (A) and the observation result (B) by PAS staining are shown.
The result is quantified by counting the total number of cells of living BAL fluid, excluding dead cells stained in trypan blue.
A. fumigatus-induced allergic pulmonary inflammation To establish the model, mice were treated with 10 μg of A. fumigatus crude antigen extract (Greer Laboratories, Cat # XPM3D3A4, Lenoir, NC, USA) with fungal substance inactivated. 0.2 ml of incomplete Freund's adjuvant (Sigma-Aldrich, Cat # F5506-6X) in regular saline It was dissolved and mixed, and half of the preparation was deposited in the peritoneal cavity and the rest was delivered subcutaneously. After 2 weeks, mice received 20 μg of A. fumigatus antigen dissolved in normal saline through the intranasal route, after an intranasal attack After 4 days, 20 μg of A. Fumigatus antigen dissolved in normal saline was treated via the endotracheal route. Control mice were administered only saline at the same time point in time through the same route and treated with the same number of conidia. […]

Compound | AKT serine phosphorylation [1] | viability at 5 µM [2] | viability at 10 µM [2] | viability at 10 µM [3] | viability at 20 µM [3] | viability [3] | viability at 0.5 µM (SARS-CoV2 virus) | inhibition of calcium release through BI-1 (TMBIM6-GCaMP3 fluorescence) (BI-1 (TMBIM6)) | all BAL inflammatory cells (BAL inflammatory cells)
O=C(/C=C/c1cccc([N+](=O)[O-])c1)c1ccccc1 [GM-90128, (E)-3-(3-nitrophenyl)-1-phenylprop-2-en-1-one] | inhibited | 102% | 57.8% | 81% | 72.2% | 62.2% |  |  | 
Nc1ccccc1C(=O)/C=C/c1cccc([N+](=O)[O-])c1 [GM-90129, (E)-1-(2-aminophenyl)-3-(3-nitrophenyl)prop-2-en-1-one] |  |  |  | 91.4% | 90.2% | 61.4% | 77.7 ± 3.6% |  | 
Nc1ccccc1C(=O)/C=C/c1ccncc1 [GM-90228, (E)-1-(2-aminophenyl)-3-(pyridin-4-yl)prop-2-en-1-one] |  | 30.4% | 22.8% | 54.1% | 37.8% | 15.1% | 74.3 ± 3.43% |  | 
COc1cc(N)c(C(=O)/C=C/c2cccc([N+](=O)[O-])c2)cc1OC [GM-90254, (E)-1-(2-amino-4,5-dimethoxyphenyl)-3-(3-nitrophenyl)prop-2-en-1-one] |  | 14.7% | 8.59% | 61.1% | 31.5% | 8.51% |  | stronger inhibitory effect | 
CCOc1cccc(/C=C/C(=O)c2ccccc2N)c1 [GM-90295, (E)-1-(2-aminophenyl)-3-(3-ethoxyphenyl)prop-2-en-1-one] |  | 103% | 82.4% | 91.7% | 86.7% | 84.7% |  | stronger inhibitory effect | 
Nc1ccccc1C(=O)/C=C/c1cccc(C(=O)O)c1 [GM-90296, (E)-3-(3-(2-aminophenyl)-3-oxoprop-1-en-1-yl)benzoic acid] |  | 107% | 91.6% | 91% | 82.3% | 76.9% |  | stronger inhibitory effect | 
Nc1ccc(F)cc1C(=O)/C=C/c1cccc([N+](=O)[O-])c1 [GM-90298, (E)-1-(2-amino-5-fluorophenyl)-3-(3-nitrophenyl)prop-2-en-1-one] |  | 21.2% | 19% | 68.9% | 62.3% | 48.7% |  | stronger inhibitory effect | 
CC(C)(C)OC(=O)Nc1cccc(/C=C/C(=O)c2ccccc2N)c1 [GM-90299, tert-butyl (E)-(3-(3-(2-aminophenyl)-3-oxoprop-1-en-1-yl)phenyl) carbamate] |  | 93.2% | 20.1% | 82.2% | 59% | 17.2% |  | stronger inhibitory effect | 
Nc1ccccc1C(=O)/C=C/c1cccc(F)c1 [GM-90318, (E)-1-(2-aminophenyl)-3-(3-fluorophenyl)prop-2-en-1-one] |  | 21.4% | 11.8% |  |  |  |  | stronger inhibitory effect | 
N/C(=N\O)c1cccc(/C=C/C(=O)c2ccccc2N)c1 [GM-90338, (Z)-3-((E)-3-(2-aminophenyl)-3-oxoprop-1-en-1-yl)-N′-hydroxy Benzimidamide] |  | 44.7% | 10.5% | 42.8% | 31.9% | 11.1% |  | stronger inhibitory effect | 
Nc1ccccc1-c1cc(-c2cccc(C(F)(F)F)c2)on1 [GM-90340, 2-(5-(3-(trifluoromethyl)phenyl)isoxazol-3-yl)aniline] |  | 88.7% | 80.2% | 92.9% | 89.3% | 76.1% |  |  | 
Cc1ccccc1-n1c(Cn2cnc3c(N)ncnc32)nc2cccc(C)c2c1=O [IC87114, reference compound] |  |  |  |  |  |  |  |  | inhibited
